# In patent US20140256664A1, “COMPOSITIONS AND METHODS FOR A MYCOBACTERIUM TUBERCULOSIS DRUG SUSCEPTIBILITY TEST” (priority 2011, published 2014):
# Where “and” joins values, the source holds several entries; their conditions need not be identical. Equal values may be shown once. Where a name gives a salt, the structure may show the parent alone. Read-outs that look alike come from different tables or passages of the source.
# Columns and labels:
# Type in all cases: cell-based, Mycobacterium tuberculosis
# [1] = tested on: M. tuberculosis isolates
# [2] = tested on: M. tuberculosis isolates; remark: listed apart in the source
# [3] = tested on: 33 isolates of M. tuberculosis
# [4] = tested on: clinical MDR strain (INH, RIF, EMB, STR resistant)
Molecule,Agar proportion Resistant (n isolates) [2],Agar proportion susceptible (n isolates) [2],D29 phage assay Resistant (n isolates) [3],D29 phage assay susceptible (n isolates) [3],ΔCt of D29 phage assay resistant isolates [3],number of phage / real-time PCR Ct value after drug pre-treatment [4],also measured
"NCC[C@H](O)C(=O)N[C@@H]1C[C@H](N)[C@@H](O[C@H]2O[C@H](CN)[C@@H](O)[C@H](O)[C@H]2O)[C@H](O)[C@H]1O[C@H]1O[C@H](CO)[C@@H](O)[C@H](N)[C@H]1O [Amikacin, amikacin]",1(16) and 1(8),0,1(−2.9) and 1(2.4),0,1(−2.9) and 1(2.4),,MIC of agar proportion resistant isolates [1]: 1(16) μg/ml and 1(8) μg/ml; Agar proportion Resistant (n isolates) ([2]; listed as AMK): 0; D29 phage assay Resistant (n isolates) ([3]; listed as AMK): 0
"CC[C@@H](CO)NCCN[C@@H](CC)CO [Ethambutol, ethambutol hydrochloride]",,,,,,,"Agar proportion Resistant (n isolates) ([2]; listed as EMB, hydrochloride): 0; D29 phage assay Resistant (n isolates) ([3]; listed as EMB, hydrochloride): 0"
"NNC(=O)c1ccncc1 [Isoniazid, isoniazid]",,0,,0,,the phage number increased/Ct value decreased,D29 phage assay Resistant (n isolates) ([3]; listed as INH): 1 and 2
"CO[C@H]1/C=C/O[C@@]2(C)Oc3c(C)c(O)c4c(O)c(c(/C=N/N5CCN(C)CC5)c(O)c4c3C2=O)NC(=O)/C(C)=C\C=C\[C@H](C)[C@H](O)[C@@H](C)[C@@H](O)[C@@H](C)[C@H](OC(C)=O)[C@@H]1C [Rifampin, rifampin]",,0,,0,,the phage number increased/Ct value decreased,"ΔCtRIF (Ct control−Ct drug) ([4]; […], drug, Tb inoculum and phage added at once, 24 h): −1"
capreomycin sulfate,1(ND),0,1(−5.4) and 1(−3.3),0,1(−5.4) and 1(−3.3),,Agar proportion Resistant (n isolates) ([2]; listed as CAP): 0; D29 phage assay Resistant (n isolates) ([3]; listed as CAP): 1; ΔCt of D29 phage assay resistant isolates ([3]; listed as CAP): −5.4
